Experimental data taken from patent US6423689B1, “Peptidyl calcium channel blockers” (Warner-Lambert Company, priority 1997, dated 2002).

Target: T1, N-type Ca2+ channels in IMR-32 cells (Homo sapiens, UniProt Q00975)
T1 construct: host or cells: IMR-32 cells, differentiated with dibutyryl cAMP and bromodeoxyuridine
Assay: Inhibition of N-type calcium flux in IMR-32 cells (Indo-1 fluorescence, nitrendipine present)
Type: cell-based
Details: for inhibition at 1 µM / inhibition at 10 µM: IMR-32; for IC50: IMR-32 cells, 5 μM nitrendipine, K+ depolarization
How it was run: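 Differentiated IMR-32 cells (7–13 days) were loaded with 5 μM Indo-1 AM, preincubated with compound for 10 min at 30° C, and depolarized with KCl/CaCl2 stimulation solution, with 5 μM nitrendipine blocking L-channels. Peak-minus-basal 400/490 nm emission ratio was plotted against drug concentration, and IC50 came from four-parameter logistic fits.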

T1 sequence (Q00975 whole entry): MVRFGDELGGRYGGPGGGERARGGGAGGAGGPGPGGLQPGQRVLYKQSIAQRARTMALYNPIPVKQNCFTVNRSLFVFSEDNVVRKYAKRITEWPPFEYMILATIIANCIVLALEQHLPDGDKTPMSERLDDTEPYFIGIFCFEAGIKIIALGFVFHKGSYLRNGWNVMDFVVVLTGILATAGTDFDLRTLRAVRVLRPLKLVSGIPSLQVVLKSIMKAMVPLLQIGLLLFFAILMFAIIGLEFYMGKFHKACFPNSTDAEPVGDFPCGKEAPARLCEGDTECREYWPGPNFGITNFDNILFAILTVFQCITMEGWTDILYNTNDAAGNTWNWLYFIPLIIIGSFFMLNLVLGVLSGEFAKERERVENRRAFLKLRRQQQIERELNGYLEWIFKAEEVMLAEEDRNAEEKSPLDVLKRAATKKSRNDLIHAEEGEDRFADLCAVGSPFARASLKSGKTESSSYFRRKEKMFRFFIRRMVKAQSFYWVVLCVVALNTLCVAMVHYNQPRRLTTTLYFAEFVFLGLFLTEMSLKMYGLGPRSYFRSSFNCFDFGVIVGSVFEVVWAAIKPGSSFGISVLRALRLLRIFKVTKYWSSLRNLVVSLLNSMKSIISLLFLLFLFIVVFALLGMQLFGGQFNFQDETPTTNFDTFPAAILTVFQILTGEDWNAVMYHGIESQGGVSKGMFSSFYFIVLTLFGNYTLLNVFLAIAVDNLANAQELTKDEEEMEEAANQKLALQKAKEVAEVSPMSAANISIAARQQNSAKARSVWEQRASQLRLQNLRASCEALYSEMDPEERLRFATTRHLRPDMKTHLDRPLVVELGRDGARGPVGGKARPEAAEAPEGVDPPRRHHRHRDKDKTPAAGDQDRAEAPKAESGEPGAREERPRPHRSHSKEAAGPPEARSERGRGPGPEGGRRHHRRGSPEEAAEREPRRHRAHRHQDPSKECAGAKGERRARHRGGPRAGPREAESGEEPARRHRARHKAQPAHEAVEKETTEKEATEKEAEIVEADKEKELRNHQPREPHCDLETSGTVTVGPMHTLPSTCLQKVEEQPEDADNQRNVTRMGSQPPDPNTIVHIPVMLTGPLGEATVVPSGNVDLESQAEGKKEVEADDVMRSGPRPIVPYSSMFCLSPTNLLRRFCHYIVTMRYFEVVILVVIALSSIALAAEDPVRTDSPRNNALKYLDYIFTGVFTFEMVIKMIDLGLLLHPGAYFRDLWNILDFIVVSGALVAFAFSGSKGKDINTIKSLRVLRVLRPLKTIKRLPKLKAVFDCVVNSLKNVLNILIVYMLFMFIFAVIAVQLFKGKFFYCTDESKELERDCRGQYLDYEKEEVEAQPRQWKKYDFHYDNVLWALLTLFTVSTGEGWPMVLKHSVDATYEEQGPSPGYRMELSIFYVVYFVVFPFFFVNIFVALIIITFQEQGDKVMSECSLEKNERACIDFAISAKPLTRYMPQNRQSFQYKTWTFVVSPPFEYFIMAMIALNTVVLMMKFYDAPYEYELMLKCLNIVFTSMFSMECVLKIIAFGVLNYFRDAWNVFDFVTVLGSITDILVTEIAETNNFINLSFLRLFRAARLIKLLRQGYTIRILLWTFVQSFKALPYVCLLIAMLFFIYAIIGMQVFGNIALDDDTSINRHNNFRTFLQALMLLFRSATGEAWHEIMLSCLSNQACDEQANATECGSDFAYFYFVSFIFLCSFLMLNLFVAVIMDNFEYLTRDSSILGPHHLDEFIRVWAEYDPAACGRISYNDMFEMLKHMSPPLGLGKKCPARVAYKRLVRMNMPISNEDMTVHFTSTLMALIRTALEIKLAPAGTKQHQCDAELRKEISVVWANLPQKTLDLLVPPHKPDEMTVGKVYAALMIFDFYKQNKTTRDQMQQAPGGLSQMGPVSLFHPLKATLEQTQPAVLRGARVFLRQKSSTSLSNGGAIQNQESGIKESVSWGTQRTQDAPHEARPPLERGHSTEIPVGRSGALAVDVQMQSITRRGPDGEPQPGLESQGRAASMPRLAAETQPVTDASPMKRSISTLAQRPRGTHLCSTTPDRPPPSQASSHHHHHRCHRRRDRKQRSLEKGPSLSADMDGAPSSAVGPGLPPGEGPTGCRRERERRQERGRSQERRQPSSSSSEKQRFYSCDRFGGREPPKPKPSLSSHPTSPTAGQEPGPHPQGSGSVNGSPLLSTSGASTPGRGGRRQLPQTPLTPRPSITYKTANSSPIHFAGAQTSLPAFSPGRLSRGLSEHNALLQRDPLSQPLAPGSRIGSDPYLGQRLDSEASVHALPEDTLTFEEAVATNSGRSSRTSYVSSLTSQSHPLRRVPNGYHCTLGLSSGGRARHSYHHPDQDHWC
T1 sequence (P54289 25-956 partner limits assumed): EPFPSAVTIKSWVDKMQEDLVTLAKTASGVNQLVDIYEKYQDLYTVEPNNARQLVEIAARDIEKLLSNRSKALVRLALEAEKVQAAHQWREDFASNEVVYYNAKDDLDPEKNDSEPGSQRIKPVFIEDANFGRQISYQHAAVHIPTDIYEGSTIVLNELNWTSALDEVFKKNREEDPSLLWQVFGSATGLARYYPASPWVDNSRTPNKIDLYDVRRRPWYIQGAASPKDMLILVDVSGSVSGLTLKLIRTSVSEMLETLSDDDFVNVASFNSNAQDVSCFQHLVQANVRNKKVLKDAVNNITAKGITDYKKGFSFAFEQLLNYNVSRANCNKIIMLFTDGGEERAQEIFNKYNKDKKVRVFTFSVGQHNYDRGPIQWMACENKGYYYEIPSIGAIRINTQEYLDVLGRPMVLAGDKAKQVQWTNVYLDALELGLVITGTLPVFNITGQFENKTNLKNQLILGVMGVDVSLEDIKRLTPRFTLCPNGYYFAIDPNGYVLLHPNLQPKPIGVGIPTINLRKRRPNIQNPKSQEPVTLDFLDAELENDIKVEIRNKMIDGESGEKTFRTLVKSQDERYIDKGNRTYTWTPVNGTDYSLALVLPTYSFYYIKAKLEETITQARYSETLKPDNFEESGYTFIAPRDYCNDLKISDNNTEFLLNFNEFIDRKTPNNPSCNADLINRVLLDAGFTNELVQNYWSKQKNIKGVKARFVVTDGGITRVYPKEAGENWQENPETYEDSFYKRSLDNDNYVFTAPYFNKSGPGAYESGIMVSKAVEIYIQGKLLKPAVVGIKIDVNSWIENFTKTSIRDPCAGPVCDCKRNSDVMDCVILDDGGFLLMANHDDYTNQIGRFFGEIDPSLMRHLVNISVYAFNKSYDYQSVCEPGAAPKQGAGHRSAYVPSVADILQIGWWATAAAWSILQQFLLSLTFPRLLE
T1 sequence (P54289 957-1103 partner limits assumed): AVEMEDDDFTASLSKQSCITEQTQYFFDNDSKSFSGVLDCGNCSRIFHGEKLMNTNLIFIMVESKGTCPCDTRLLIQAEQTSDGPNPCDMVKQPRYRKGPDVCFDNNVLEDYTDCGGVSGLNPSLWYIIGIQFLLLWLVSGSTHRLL
T1 sequence (P54284 whole entry partner): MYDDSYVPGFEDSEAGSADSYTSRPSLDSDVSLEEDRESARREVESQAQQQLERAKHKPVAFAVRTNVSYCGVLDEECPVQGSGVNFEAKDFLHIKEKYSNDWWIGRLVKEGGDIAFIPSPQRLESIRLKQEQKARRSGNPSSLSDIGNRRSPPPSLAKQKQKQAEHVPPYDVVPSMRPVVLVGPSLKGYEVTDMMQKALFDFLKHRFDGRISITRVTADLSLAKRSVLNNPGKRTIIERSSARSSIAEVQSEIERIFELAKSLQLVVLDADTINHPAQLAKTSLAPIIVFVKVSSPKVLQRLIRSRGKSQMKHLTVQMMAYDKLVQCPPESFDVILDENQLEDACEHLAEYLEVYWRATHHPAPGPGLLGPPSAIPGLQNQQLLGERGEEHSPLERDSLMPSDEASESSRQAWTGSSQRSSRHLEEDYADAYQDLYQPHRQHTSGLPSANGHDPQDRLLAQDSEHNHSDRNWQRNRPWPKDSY

| SMILES | Inhibition of Calcium Flux in IMR-32 Cells % Inhibition at 1 μM [%] | Inhibition of Calcium Flux in IMR-32 Cells % Inhibition at 10 μM [%] | also measured |
| --- | --- | --- | --- |
| CC(C)C[C@H](NC(=O)N1CCCCCC1)C(=O)N[C@@H](Cc1ccc(OCc2ccc(C#N)cc2)cc1)C(=O)OC(C)(C)C [Example 27, [S-(R*,R*)]-2-{2-[(Azepane-1-carbonyl)-amino]-4-methyl-pentanoylamino}-3-[4-(4-cyano-benzyloxy)-phenyl]-propionic acid tert-butyl ester] | – | – | inhibition at 1 µM: 51%; inhibition at 10 µM: 92%; IC50: 810 nM |
| CC(C)C[C@H](NC(=O)c1ccc(F)cc1)C(=O)N[C@@H](Cc1ccc(OCc2ccccc2)cc1)C(=O)OC(C)(C)C (relative stereo) [Example 94, [S-(R*,R*)]-3-(4-Benzyloxy-phenyl)-2-[2-(4-fluoro-benzoylamino)-4-methyl-pentanoylamino]-propionic acid tert-butyl ester] | 29 | – | – |
| CC(C)C[C@H](NS(=O)(=O)c1ccc2cccnc2c1)C(=O)N[C@@H](Cc1ccc(OCc2ccccc2)cc1)C(=O)OC(C)(C)C (relative stereo) [Example 109, [S-(R*,R*)]-3-(4-Benzyloxy-phenyl)-2-[4-methyl-2-(quinoline-7-sulfonylamino)-pentanoylamino]-propionic acid tert-butyl ester] | – | 56 | – |
| CC(C)C[C@H](NC(=O)N[C@H](C)c1ccccc1)C(=O)N[C@@H](Cc1ccc(OCc2ccccc2)cc1)C(=O)OC(C)(C)C [Example 63, 3-(4-Benzyloxy-phenyl)-(S)-2-{4-methyl-(S)-2-[3-[(R)-1-phenyl-ethyl]-ureido]-pentanoylamino}-propionic acid tert-butyl ester] | – | – | inhibition at 1 µM: 33% |
| Cc1ccc(NC(=O)N[C@@H](CC(C)C)C(=O)N[C@@H](Cc2ccc(OCc3ccccc3)cc2)C(=O)OC(C)(C)C)cc1 (relative stereo) [Example 58, [S-(R*,R*)]-3-(4-Benzyloxy-phenyl)-2-[4-methyl-2-(3-p-tolyl-ureido)-pentanoylamino]propionic acid tert-butyl ester] | 52 | 35 | – |
| CC(C)C[C@H](NC(=O)NC1CC1c1ccccc1)C(=O)N[C@@H](Cc1ccc(OCc2ccccc2)cc1)C(=O)OC(C)(C)C (relative stereo) [Example 75, [S-(R*,R*)]-3-(4-Benzyloxy-phenyl)-2-{4-methyl-2-[3-(2-phenyl-cyclopropyl)-ureido]-pentanoylamino}-propionic acid tert-butyl ester] | 28 | – | – |
| CC(C)CC(NC(=O)N1CCCCCC1)C(=O)NC(Cc1ccc(OCc2ccccc2)cc1)C(=O)NCC(O)CN (stereo not drawn) [Example 219, Azepane-1-carboxylic acid {1-[1-(3-amino-2-hydroxy-propylcarbamoyl)-2-(4-benzyloxy-phenyl)-ethylcarbamoyl]-3-methyl-butyl}-amide] | – | – | inhibition at 1 µM: 6%; inhibition at 10 µM: 23% |
| CC(C)C[C@H](NC(=O)C(F)(F)F)C(=O)N[C@@H](Cc1ccc(OCc2ccccc2)cc1)C(=O)OC(C)(C)C (relative stereo) [Example 128, [S-(R*,R*)]-3-(4-Benzyloxy-phenyl)-2-[4-methyl-2-(2,2,2-trifluoro-acetylamino)pentanoylamino]-propionic acid tert-butyl ester] | – | 78 | – |
| Cc1ccc(NC(=S)N[C@@H](CC(C)C)C(=O)N[C@@H](Cc2ccc(OCc3ccccc3)cc2)C(=O)OC(C)(C)C)cc1 (relative stereo) [Example 50, [S-(R*,R*)]-3-(4-Benzyloxy-phenyl)-2-[4-methyl-2-(3-p-tolyl-thioureido)-pentanoylamino]-propionic acid tert-butyl ester] | 53 | 85 | – |
| CC(C)C[C@H](NC(=O)N1CCCCCC1)C(=O)N[C@@H](Cc1ccc(OCc2ccccc2)cc1)C(=O)Nc1ccc(CCO)cc1 [Example 211, [S-(R*,R*)]-Azepane-1-carboxylic acid (1-{2-(4-benzyloxy-phenyl)-1-[4-(2-hydroxy-ethyl)-phenylcarbamoyl]-ethylcarbamoyl}-3-methyl-butyl)-amide] | – | – | inhibition at 1 µM: 49%; inhibition at 10 µM: 81%; IC50: 1100 nM |
| CSCC[C@H](NC(=O)N1CCCCCC1)C(=O)N[C@@H](Cc1ccc(OCc2ccccc2)cc1)C(=O)NCCN1CCCCC1 [Example 154, [S-(R*,R*)]-Azepane-1-carboxylic acid {1-[2-(4-benzyloxy-phenyl)-1-(2-piperidin-1-ylethylcarbamoyl)-ethylcarbamoyl]-3-methylsulfanyl-propyl}-amide] | – | – | IC50: 9600 nM |
| CC(C)C[C@H](NC(=O)N1CCCCCC1)C(=O)N[C@@H](Cc1ccc(OCc2ccccc2)cc1)C(=O)N1CCN(CCOCCO)CC1 (relative stereo) [Example 228, [S-(R*,R*)]-Azepane-1-carboxylic acid-[1-(1-(4-benzyloxy-benzyl)-2-{4-[2-(2-hydroxy-ethoxy)-ethyl]-piperazin-1-yl}-2-oxo-ethylcarbamoyl)-3-methyl-butyl]-amide] | 24 | 82 | – |
| COc1ccccc1NC(=O)N[C@@H](CC(C)C)C(=O)N[C@@H](Cc1ccc(OCc2ccccc2)cc1)C(=O)OC(C)(C)C (relative stereo) [Example 71, [S-(R*,R*)]-3-(4-Benzyloxy-phenyl)-2-{2-[3-(2-methoxy-phenyl)-ureido]-4-methyl-pentanoylamino}-propionic acid tert-butyl ester] | 55 | – | – |
| CC(C)C[C@H](NC(=O)N1CCCCCC1)C(=O)N[C@@H](Cc1ccc(OCc2ccccc2)cc1)C(=O)NCc1cccc(I)c1 (relative stereo) [Example 241, [S-(R*,R*)]-Azepane-1-carboxylic acid {1-[2-(4-benzyloxy-phenyl)-1-(3-iodo-benzylcarbamoyl)-ethylcarbamoyl]-3-methyl-butyl}-amide] | 53 | 83 | – |
| CC(C)C[C@H](NC(=O)Nc1cccc(Cl)c1)C(=O)N[C@@H](Cc1ccc(OCc2ccccc2)cc1)C(=O)OC(C)(C)C (relative stereo) [Example 74, [S-(R*,R*)]-3-(4-Benzyloxy-phenyl)-2-{2-[3-(3-chloro-phenyl)-ureido]-4-methyl-pentanoylamino}-propionic acid tert-butyl ester] | 45 | – | – |
| COc1cc(C(=O)NC(CC(C)C)C(=O)N[C@@H](Cc2ccc(OCc3ccccc3)cc2)C(=O)OC(C)(C)C)cc(OC)c1OC (stereo in doubt) [Example 92, [S(R*,R*)]-3-(4-Benzyloxy-phenyl)-2-[4-methyl-2-(3,4,5-trimethoxy-benzoylamino)-pentanoylamino]-propionic acid tert-butyl ester] | 1 | 65 | – |
| CC(C)C[C@H](NC(=O)NC1CCCCC1)C(=O)N[C@@H](Cc1ccc(OCc2ccccc2)cc1)C(=O)OC(C)(C)C (relative stereo) [Example 56, [S-(R*,R*)]-3-(4-Benzyloxy-phenyl)-2-[2-(3-cyclohexyl-ureido)-4-methyl-pentanoylamino]propionic acid tert-butyl ester] | 24 | 56 | – |
| CC(C)C[C@H](NC(=O)C(F)(F)C(F)(F)F)C(=O)C[C@H](Cc1ccc(OCc2ccccc2)cc1)C(=O)OC(C)(C)C (relative stereo) [Example 127, [S-(R*,R*)]-2-(4-Benzyloxy-benzyl)-7-methyl-4-oxo-5-(2,2,3,3,3-pentafluoro-propionylamino)-octanoic acid tert-butyl ester] | – | 61 | – |
| CC(C)C[C@H](NC(=O)N1CCCCCC1)C(=O)N[C@@H](Cc1ccc(OCc2ccccc2)cc1)C(=O)NCC1CCCCC1 [Example 205, [S-(R*,R*)]-Azepane-1-carboxylic acid {1-[2-(4-benzyloxy-phenyl)-1-(cyclohexylmethyl-carbamoyl)-ethylcarbamoyl]-3-methyl-butyl}-amide] | – | – | inhibition at 1 µM: 36%; inhibition at 10 µM: 72%; IC50: 2400 nM |
| CC(C)C[C@H](NC(=O)Nc1cc(C(F)(F)F)cc(C(F)(F)F)c1)C(=O)N[C@@H](Cc1ccc(OCc2ccccc2)cc1)C(=O)OC(C)(C)C (relative stereo) [Example 83, [S-(R*,R*)]-3-(4-Benzyloxy-phenyl)-2-{2-[3-(3,5-bis-trifluoromethyl-phenyl)-ureido]-4-methyl-pentanoylamino}-propionic acid tert-butyl ester] | 19 | – | – |
| CC(C)C[C@H](NC(=O)N1CCCCCC1)C(=O)N[C@@H](Cc1ccc(OCc2ccccc2)cc1)C(=O)N1CCC(Cc2ccccc2)CC1 [Example 265, [S-(R*,R*)]-Azepane-1-carboxylic acid {1-[1-(4-benzyloxy-benzyl)-2-(4-benzyl-piperidin-1-yl)-2-oxo-ethylcarbamoyl]-3-methyl-butyl}-amide] | – | – | IC50: 1000 nM |
| COC(=O)[C@H](Cc1ccc(OC(C)(C)C)cc1)NC(=O)[C@H](CC(C)C)NC(=O)N1CCCCCC1 (relative stereo) [Example 22, [S-(R*,R*)]-2-{2-[(Azepane-1-carbonyl)-amino]-4-methyl-pentanoylamino}-3-(4-tert-butoxy-phenyl)-propionic acid methyl ester] | 29 | – | – |
| CC(C)C[C@H](NC(=O)N1CCCCCC1)C(=O)N[C@@H](Cc1ccc(OCc2ccccc2)cc1)C(=O)NCC(C)NC(C)C (stereo partly drawn) [Example 242] | 23 | – | – |
